{
  "source": "ChEMBL document CHEMBL1130485",
  "about": "“Novel low molecular renin inhibitors which show good oral blood pressure lowering effects in marmosets” (Bioorg Med Chem Lett, 1997)",
  "key": {"Renin": {"molecular_target": "T1, Renin (Homo sapiens, UniProt P00797)", "T1 sequence (P00797 whole entry)": "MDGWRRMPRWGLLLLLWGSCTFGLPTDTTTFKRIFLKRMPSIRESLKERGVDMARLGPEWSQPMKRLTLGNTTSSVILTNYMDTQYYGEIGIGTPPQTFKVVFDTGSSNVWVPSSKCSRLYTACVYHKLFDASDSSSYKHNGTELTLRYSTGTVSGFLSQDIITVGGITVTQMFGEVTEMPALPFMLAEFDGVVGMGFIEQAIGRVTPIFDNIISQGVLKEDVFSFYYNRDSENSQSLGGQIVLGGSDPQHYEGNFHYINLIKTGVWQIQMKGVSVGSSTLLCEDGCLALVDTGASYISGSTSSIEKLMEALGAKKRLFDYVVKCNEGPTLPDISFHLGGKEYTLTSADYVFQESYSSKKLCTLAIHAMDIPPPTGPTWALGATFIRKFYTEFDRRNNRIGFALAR", "test": "In vitro renin inhibitory effect was evaluated for plasma renin activity (PRA) of human plasma, Expressed as IC50", "assay_type": "cell-free"}, "[1]": {"test": "In vivo blood pressure lowering effects in salt depleted conscious marmosets was determined when a dose of 10mg/Kg, po. at 1 hr", "assay_type": "functional, Callitrichinae"}, "[2]": {"test": "In vivo blood pressure lowering effects in salt depleted conscious marmosets was determined when a dose of 10mg/Kg, po. at 0.5 hr", "assay_type": "functional, Callitrichinae"}, "[3]": {"test": "In vivo blood pressure lowering effects in salt depleted conscious marmosets was determined when a dose of 10mg/Kg, po. at 3h", "assay_type": "functional, Callitrichinae"}, "[4]": {"molecular_target": "T2, Angiotensin-converting enzyme (Homo sapiens, UniProt P12821)", "T2 sequence (P12821 whole entry)": "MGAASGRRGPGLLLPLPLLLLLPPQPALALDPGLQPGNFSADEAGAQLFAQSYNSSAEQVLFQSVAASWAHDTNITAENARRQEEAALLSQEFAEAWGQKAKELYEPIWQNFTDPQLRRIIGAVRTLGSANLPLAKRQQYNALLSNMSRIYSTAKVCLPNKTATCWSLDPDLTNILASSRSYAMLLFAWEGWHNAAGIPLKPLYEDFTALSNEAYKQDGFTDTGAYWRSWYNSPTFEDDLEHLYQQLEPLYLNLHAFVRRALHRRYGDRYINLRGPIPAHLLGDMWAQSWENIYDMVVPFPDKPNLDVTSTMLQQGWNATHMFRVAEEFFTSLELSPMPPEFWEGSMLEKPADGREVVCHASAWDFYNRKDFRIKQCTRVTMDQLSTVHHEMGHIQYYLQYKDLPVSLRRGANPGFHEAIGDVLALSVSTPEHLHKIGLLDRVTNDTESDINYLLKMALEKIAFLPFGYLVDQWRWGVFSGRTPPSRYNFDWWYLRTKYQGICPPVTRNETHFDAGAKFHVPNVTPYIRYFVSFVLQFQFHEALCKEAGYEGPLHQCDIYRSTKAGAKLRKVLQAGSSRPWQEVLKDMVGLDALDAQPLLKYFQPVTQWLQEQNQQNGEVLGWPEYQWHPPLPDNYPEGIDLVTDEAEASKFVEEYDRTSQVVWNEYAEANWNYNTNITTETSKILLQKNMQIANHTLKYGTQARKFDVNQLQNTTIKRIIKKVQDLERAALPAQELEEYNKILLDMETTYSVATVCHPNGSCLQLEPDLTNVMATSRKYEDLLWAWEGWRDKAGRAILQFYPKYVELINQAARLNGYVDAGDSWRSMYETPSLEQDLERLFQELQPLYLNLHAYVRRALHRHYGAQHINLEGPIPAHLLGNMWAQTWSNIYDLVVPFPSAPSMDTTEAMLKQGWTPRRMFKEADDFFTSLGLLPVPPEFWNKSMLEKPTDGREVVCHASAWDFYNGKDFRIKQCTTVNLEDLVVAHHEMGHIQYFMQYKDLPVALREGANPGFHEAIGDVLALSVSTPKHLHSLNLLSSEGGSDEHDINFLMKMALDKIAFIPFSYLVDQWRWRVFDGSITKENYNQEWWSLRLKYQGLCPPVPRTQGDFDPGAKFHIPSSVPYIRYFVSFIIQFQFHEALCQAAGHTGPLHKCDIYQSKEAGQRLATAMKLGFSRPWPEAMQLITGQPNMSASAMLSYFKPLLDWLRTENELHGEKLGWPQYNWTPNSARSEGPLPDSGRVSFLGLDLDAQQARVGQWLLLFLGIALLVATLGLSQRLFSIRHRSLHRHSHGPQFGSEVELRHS", "test": "Inhibitory activity against ACE human, expressed as IC50"}, "Pepsin A": {"molecular_target": "Pepsin A (Sus scrofa, UniProt P00791)", "sequence (P00791 whole entry)": "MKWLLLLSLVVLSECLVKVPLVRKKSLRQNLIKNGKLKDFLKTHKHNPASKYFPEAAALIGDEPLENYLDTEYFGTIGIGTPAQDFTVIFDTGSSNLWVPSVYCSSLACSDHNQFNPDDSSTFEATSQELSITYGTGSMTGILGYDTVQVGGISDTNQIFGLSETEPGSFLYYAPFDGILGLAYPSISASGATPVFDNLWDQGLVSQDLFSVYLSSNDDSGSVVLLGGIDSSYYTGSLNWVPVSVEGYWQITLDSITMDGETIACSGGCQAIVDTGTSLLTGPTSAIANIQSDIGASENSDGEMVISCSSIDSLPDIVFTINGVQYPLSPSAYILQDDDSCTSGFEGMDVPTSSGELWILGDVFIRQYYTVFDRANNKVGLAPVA", "test": "In vitro inhibitory effect was evaluated against pepsin, Expressed as IC50"}, "Cathepsin D": {"molecular_target": "T3, Cathepsin D (Bos taurus, UniProt P80209)", "T3 sequence (P80209 whole entry)": "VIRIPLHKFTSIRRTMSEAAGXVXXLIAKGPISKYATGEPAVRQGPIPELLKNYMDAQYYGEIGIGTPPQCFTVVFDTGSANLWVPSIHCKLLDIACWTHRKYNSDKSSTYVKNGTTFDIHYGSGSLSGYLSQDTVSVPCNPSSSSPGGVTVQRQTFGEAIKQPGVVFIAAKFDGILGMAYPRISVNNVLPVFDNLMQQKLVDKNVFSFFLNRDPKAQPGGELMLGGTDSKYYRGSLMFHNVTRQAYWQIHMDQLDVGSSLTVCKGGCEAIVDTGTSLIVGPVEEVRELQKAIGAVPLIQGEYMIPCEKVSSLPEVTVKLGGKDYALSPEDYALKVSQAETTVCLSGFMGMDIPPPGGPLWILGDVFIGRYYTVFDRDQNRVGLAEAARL", "test": "Inhibitory activity against cathepsin D (bovine), expressed as IC50"}, "[5]": {"molecular_target": "T2, Angiotensin-converting enzyme", "test": "Percent Inhibitory activity against angiotensin-converting enzyme (ACE) human at the concentration of 100000 nM"}, "Pepsin A (Sus scrofa)": {"molecular_target": "Pepsin A (Sus scrofa) (UniProt P00791)", "sequence (P00791 60-385 limits assumed)": "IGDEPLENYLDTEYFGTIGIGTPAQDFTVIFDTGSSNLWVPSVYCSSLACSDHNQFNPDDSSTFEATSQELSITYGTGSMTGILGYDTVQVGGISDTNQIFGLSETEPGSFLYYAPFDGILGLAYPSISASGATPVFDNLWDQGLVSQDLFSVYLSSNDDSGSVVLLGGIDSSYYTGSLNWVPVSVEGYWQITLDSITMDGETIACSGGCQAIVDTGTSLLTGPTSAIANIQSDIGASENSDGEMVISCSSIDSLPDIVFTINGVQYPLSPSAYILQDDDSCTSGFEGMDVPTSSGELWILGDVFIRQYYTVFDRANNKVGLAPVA", "test": "Percent Inhibitory activity against pepsin at the concentration of 100000 nM"}, "[6]": {"molecular_target": "T4, Renin (Rattus norvegicus) (UniProt P08424)", "T4 sequence (whole entry)": "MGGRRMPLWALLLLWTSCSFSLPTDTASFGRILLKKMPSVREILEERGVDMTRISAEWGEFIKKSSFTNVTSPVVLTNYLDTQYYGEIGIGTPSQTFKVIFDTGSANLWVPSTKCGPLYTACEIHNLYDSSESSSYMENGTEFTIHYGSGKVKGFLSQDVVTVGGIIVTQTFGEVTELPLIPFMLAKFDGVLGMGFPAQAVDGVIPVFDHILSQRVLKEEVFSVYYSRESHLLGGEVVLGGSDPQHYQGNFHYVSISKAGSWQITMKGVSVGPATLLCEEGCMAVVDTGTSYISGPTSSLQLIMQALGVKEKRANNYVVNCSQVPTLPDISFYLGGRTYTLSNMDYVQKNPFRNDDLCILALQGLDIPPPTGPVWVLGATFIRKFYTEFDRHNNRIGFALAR", "test": "In vitro percent Inhibitory activity against rat plasma renin at the concentration of 100000 nM", "assay_type": "cell-free"}},
  "data": [
    {"smiles": "CC(C)[C@@H](O)C[C@H](O)[C@H](CC1CCCCC1)NC(=O)[C@H](Cc1cnc[nH]1)NC(=O)c1cc2cc(O)ccc2[nH]1", "values": [
      {"measurement": "IC50", "setting": "Renin", "value": 600, "unit": "nM"}
    ]},
    {"smiles": "CC(C)[C@@H](O)C[C@H](O)[C@H](CC1CCCCC1)NC(=O)[C@H](Cc1c[nH]cn1)NC(=O)c1cc2ccccc2c(O)n1", "values": [
      {"measurement": "Delta SBP", "setting": "[1]", "value": 1, "unit": "mmHg"},
      {"measurement": "IC50", "setting": "Renin", "value": 48, "unit": "nM"},
      {"measurement": "Delta SBP", "setting": "[2]", "value": -5, "unit": "mmHg"},
      {"measurement": "Delta SBP", "setting": "[3]", "value": 2, "unit": "mmHg"}
    ]},
    {"smiles": "CC(C)[C@@H](O)C[C@H](O)[C@H](CC1CCCCC1)NC(=O)[C@H](Cc1c[nH]cn1)NC(=O)c1cc2cc(F)ccc2[nH]1", "values": [
      {"measurement": "Delta SBP", "setting": "[1]", "value": -21, "unit": "mmHg"},
      {"measurement": "IC50", "setting": "Renin", "value": 46, "unit": "nM"},
      {"measurement": "Delta SBP", "setting": "[2]", "value": -18, "unit": "mmHg"},
      {"measurement": "Delta SBP", "setting": "[3]", "value": -12, "unit": "mmHg"}
    ]},
    {"smiles": "CC(C)[C@@H](O)C[C@H](O)[C@H](CC1CCCCC1)NC(=O)[C@H](Cc1cnc[nH]1)NC(=O)C1Cc2ccccc2N1", "note": "(stereo in doubt; 4)", "values": [
      {"measurement": "IC50", "setting": "Renin", "value": 880, "unit": "nM"}
    ]},
    {"smiles": "CC(=O)n1c(C(=O)N[C@@H](Cc2cnc[nH]2)C(=O)N[C@@H](CC2CCCCC2)[C@@H](O)C[C@H](O)C(C)C)cc2ccccc21", "values": [
      {"measurement": "IC50", "setting": "Renin", "value": 340, "unit": "nM"}
    ]},
    {"smiles": "CC(C)[C@@H](O)C[C@H](O)[C@H](CC1CCCCC1)NC(=O)[C@H](Cc1cnc[nH]1)NC(=O)c1cc2ccccc2[nH]1", "values": [
      {"measurement": "IC50", "setting": "[4]", "value": "> 100000", "unit": "nM"},
      {"measurement": "IC50", "setting": "Pepsin A", "value": "> 100000", "unit": "nM"},
      {"measurement": "IC50", "setting": "Cathepsin D", "value": "> 100000", "unit": "nM"}
    ]},
    {"smiles": "CC(C)[C@@H](O)C[C@H](O)[C@H](CC1CCCCC1)NC(=O)[C@H](Cc1c[nH]cn1)NC(=O)c1nc2ccccc2[nH]1", "values": [
      {"measurement": "Delta SBP", "setting": "[1]", "value": -13, "unit": "mmHg"},
      {"measurement": "IC50", "setting": "Renin", "value": 13, "unit": "nM"},
      {"measurement": "Delta SBP", "setting": "[2]", "value": -9, "unit": "mmHg"},
      {"measurement": "Delta SBP", "setting": "[3]", "value": -7, "unit": "mmHg"}
    ]},
    {"smiles": "CC(C)[C@@H](O)C[C@H](O)[C@H](CC1CCCCC1)NC(=O)[C@H](Cc1cnc[nH]1)NC(=O)c1cc2ccccc2s1", "values": [
      {"measurement": "IC50", "setting": "Renin", "value": 8200, "unit": "nM"}
    ]},
    {"smiles": "CC(C)[C@@H](O)C[C@H](O)[C@H](CC1CCCCC1)NC(=O)[C@H](Cc1cnc[nH]1)NC(=O)c1cc2cccnc2[nH]1", "values": [
      {"measurement": "IC50", "setting": "Renin", "value": 800, "unit": "nM"}
    ]},
    {"smiles": "CC(C)[C@@H](O)C[C@H](O)[C@H](CC1CCCCC1)NC(=O)[C@H](Cc1cnc[nH]1)NC(=O)C1Cc2ccccc2N1", "note": "(stereo in doubt)", "values": [
      {"measurement": "IC50", "setting": "Renin", "value": 4400, "unit": "nM"}
    ]},
    {"smiles": "CC(C)[C@@H](O)C[C@H](O)[C@H](CC1CCCCC1)NC(=O)[C@H](Cc1cnc[nH]1)NC(=O)[C@@H]1Cc2ccccc2CN1", "values": [
      {"measurement": "IC50", "setting": "Renin", "value": 420, "unit": "nM"}
    ]},
    {"smiles": "CC(C)[C@@H](O)C[C@H](O)[C@H](CC1CCCCC1)NC(=O)[C@H](Cc1c[nH]cn1)NC(=O)c1cc2ccccc2[nH]1", "values": [
      {"measurement": "Delta SBP", "setting": "[1]", "value": -15, "unit": "mmHg"},
      {"measurement": "inhibition", "setting": "[5]", "value": 6, "unit": "%"},
      {"measurement": "inhibition", "setting": "Pepsin A (Sus scrofa)", "value": 5.6, "unit": "%"},
      {"measurement": "inhibition", "setting": "[6]", "value": 41.1, "unit": "%"},
      {"measurement": "Delta SBP", "setting": "[2]", "value": -12, "unit": "mmHg"},
      {"measurement": "Delta SBP", "setting": "[3]", "value": -13, "unit": "mmHg"}
    ]},
    {"smiles": "CC(C)[C@@H](O)C[C@H](O)[C@H](CC1CCCCC1)NC(=O)[C@H](Cc1c[nH]cn1)NC(=O)c1cc2cc(Cl)ccc2[nH]1", "values": [
      {"measurement": "IC50", "setting": "Renin", "value": 260, "unit": "nM"}
    ]},
    {"smiles": "CC(C)[C@@H](O)C[C@H](O)[C@H](CC1CCCCC1)NC(=O)[C@H](Cc1cnc[nH]1)N(C)C(=O)[C@H](Cc1ccccc1)NC(=O)N1CCC(O)CC1", "values": [
      {"measurement": "IC50", "setting": "Renin", "value": 0.68, "unit": "nM"}
    ]},
    {"smiles": "CC(C)[C@@H](O)C[C@H](O)[C@H](CC1CCCCC1)NC(=O)[C@H](Cc1c[nH]cn1)NC(=O)c1cc2ccccc2o1", "values": [
      {"measurement": "IC50", "setting": "Renin", "value": 140, "unit": "nM"}
    ]},
    {"smiles": "CC(C)[C@@H](O)C[C@H](O)[C@H](CC1CCCCC1)NC(=O)[C@H](Cc1c[nH]cn1)NC(=O)c1ccc[nH]1", "values": [
      {"measurement": "IC50", "setting": "Renin", "value": 3000, "unit": "nM"}
    ]},
    {"smiles": "CC(C)[C@@H](O)C[C@H](O)[C@H](CC1CCCCC1)NC(=O)[C@H](Cc1c[nH]cn1)NC(=O)c1cc2ccccc2cn1", "values": [
      {"measurement": "IC50", "setting": "Renin", "value": 790, "unit": "nM"}
    ]}
  ]
}
